Patent publication US6355799B1, “Substituted benzene compounds, process for their preparation, and herbicidal and defoliant compositions containing them” (ISK Americas Incorporated, priority 1997, dated 2002)

Key:
Format in all cases: in vivo
[1] = system: redroot pigweed (Amaranthus retroflexus, AMARE); test: Pre-emerge test, greenhouse herbicide activity screening; settings: pre-emerge, 14 days after application, rating scale 0-100
Method in brief: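 Sandy loam pots; pre-emerge: sown 1 d pre-spray, surface-watered after, then bottom-watered. Post-emerge: sown 8–21 d before, 2–3 leaf stage, + 0.25% v/v NIS, bottom-watered. Acetone, 187 l/ha track spray, 15–1000 g ai/ha. 0–100 injury score, day 14.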

[2] = system: barnyardgrass (Echinochloa crus-galli, ECHCG); test: as above; settings: pre-emerge, 14 days after application, rating scale 0-100
Method in brief: (§1)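 Herbicidal damage is scored 0 (none) to 100 (complete plant death) two weeks after a simulated field spray. Rates span 15–1000 g ai/ha, delivered in acetone at 187 l/ha. For post-emergence treatments, plants have 2–3 leaves and the spray carries 0.25% v/v non-ionic surfactant.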

[3] = system: green foxtail (Setaria viridis, SETVI); test: as above; settings: pre-emerge, 14 days after application, rating scale 0-100
Method in brief: as §1

[4] = system: ivyleaf morningglory (Ipomoea hederacea, IPOHE); test: as above; settings: pre-emerge, 14 days after application, rating scale 0-100
Method in brief: as §1

[5] = system: johnsongrass (Sorghum halepense, SORHA); test: as above; settings: pre-emerge, 14 days after application, rating scale 0-100
Method in brief: as §1

[6] = system: lambsquarters (Chenopodium album, CHEAL); test: as above; settings: pre-emerge, 14 days after application, rating scale 0-100
Method in brief: as §1

[7] = system: large crabgrass (Digitaria sanguinalis, DIGSA); test: as above; settings: pre-emerge, 14 days after application, rating scale 0-100
Method in brief: as §1

[8] = system: sicklepod (Cassia obtusifolia, CASOB); test: as above; settings: pre-emerge, 14 days after application, rating scale 0-100
Method in brief: as §1

[9] = system: velvetleaf (Abutilon theophrasti, ABUTH); test: as above; settings: pre-emerge, 14 days after application, rating scale 0-100
Method in brief: as §1

[10] = system: field corn (Zea mays L., var. Dekalb 535, CORN); test: Pre-emerge test, crop safety; settings: pre-emerge, 14 days after application, rating scale 0-100
Method in brief: (§2)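 Rating: 0–100 visual injury, 14 DAA. Application: acetone, 187 l/ha, 15–1000 g ai/ha, flat-fan track sprayer with nozzle 40–45 cm above soil or canopy. Post-emerge runs used 0.25% v/v surfactant on 2–3 leaf plants.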

[11] = system: upland rice (Oryza sp., var. Tebonnet, RICE); test: Pre-emerge test, crop safety; settings: pre-emerge, 14 days after application, rating scale 0-100
Method in brief: as §2

[12] = system: barnyardgrass (Echinochloa crus-galli, ECHCG); test: Post-emerge test, greenhouse herbicide activity screening; settings: post-emerge, 14 days after application, rating scale 0-100
Method in brief: as §2

[13] = system: green foxtail (Setaria viridis, SETVI); test: as above; settings: post-emerge, 14 days after application, rating scale 0-100
Method in brief: as §2

[14] = system: ivyleaf morningglory (Ipomoea hederacea, IPOHE); test: as above; settings: post-emerge, 14 days after application, rating scale 0-100
Method in brief: as §2

[15] = system: johnsongrass (Sorghum halepense, SORHA); test: as above; settings: post-emerge, 14 days after application, rating scale 0-100
Method in brief: as §2

[16] = system: lambsquarters (Chenopodium album, CHEAL); test: as above; settings: post-emerge, 14 days after application, rating scale 0-100
Method in brief: as §2

[17] = system: large crabgrass (Digitaria sanguinalis, DIGSA); test: as above; settings: post-emerge, 14 days after application, rating scale 0-100
Method in brief: as §2

[18] = system: redroot pigweed (Amaranthus retroflexus, AMARE); test: as above; settings: post-emerge, 14 days after application
Method in brief: as §2

[19] = system: sicklepod (Cassia obtusifolia, CASOB); test: as above; settings: post-emerge, 14 days after application, rating scale 0-100
Method in brief: as §2

[20] = system: velvetleaf (Abutilon theophrasti, ABUTH); test: as above; settings: post-emerge, 14 days after application, rating scale 0-100
Method in brief: as §2

[21] = system: field corn (Zea mays L., var. Dekalb 535, CORN); test: Post-emerge test, crop safety; settings: post-emerge, 14 days after application, rating scale 0-100
Method in brief: as §1

[22] = system: upland rice (Oryza sp., var. Tebonnet, RICE); test: Post-emerge test, crop safety; settings: post-emerge, 14 days after application, rating scale 0-100
Method in brief: as §1

## COc1c(Cl)cc(F)c(-n2c(=O)cc(C(F)(F)F)n(C)c2=O)c1NN=C(C(F)(F)F)C(F)(F)F [15-21]
[1]; 63 g ai/ha
  phytotoxicity rating AMARE: 100
[1]; 250 g ai/ha
  phytotoxicity rating AMARE: 100
[2]; 63 g ai/ha
  phytotoxicity rating ECHCG: 99
[2]; 250 g ai/ha
  phytotoxicity rating ECHCG: 100
[3]; 63 g ai/ha
  phytotoxicity rating SETVI: 100
[3]; 250 g ai/ha
  phytotoxicity rating SETVI: 100
[4]; 63 g ai/ha
  phytotoxicity rating IPOHE: 100
[4]; 250 g ai/ha
  phytotoxicity rating IPOHE: 100
[5]; 63 g ai/ha
  phytotoxicity rating SORHA: 100
[5]; 250 g ai/ha
  phytotoxicity rating SORHA: 100
[6]; 63 g ai/ha
  phytotoxicity rating CHEAL: 100
[6]; 250 g ai/ha
  phytotoxicity rating CHEAL: 100
[7]; 63 g ai/ha
  phytotoxicity rating DIGSA: 100
[7]; 250 g ai/ha
  phytotoxicity rating DIGSA: 100
[8]; 63 g ai/ha
  phytotoxicity rating CASOB: 100
[8]; 250 g ai/ha
  phytotoxicity rating CASOB: 100
[9]; 63 g ai/ha
  phytotoxicity rating ABUTH: 100
[9]; 250 g ai/ha
  phytotoxicity rating ABUTH: 100
[10]; 63 g ai/ha
  phytotoxicity rating CORN: 95
[10]; 250 g ai/ha
  phytotoxicity rating CORN: 100
[11]; 63 g ai/ha
  phytotoxicity rating RICE: 99
[11]; 250 g ai/ha
  phytotoxicity rating RICE: 100
[12]; 63 g ai/ha
  Post-emerge Herbicidal Activity ECHCG (phytotoxicity rating): 60
[12]; 250 g ai/ha
  Post-emerge Herbicidal Activity ECHCG (phytotoxicity rating): 100
[13]; 63 g ai/ha
  Post-emerge Herbicidal Activity SETVI (phytotoxicity rating): 50
[13]; 250 g ai/ha
  Post-emerge Herbicidal Activity SETVI (phytotoxicity rating): 90
[14]; 63 g ai/ha
  Post-emerge Herbicidal Activity IPOHE (phytotoxicity rating): 100
[14]; 250 g ai/ha
  Post-emerge Herbicidal Activity IPOHE (phytotoxicity rating): 100
[15]; 63 g ai/ha
  Post-emerge Herbicidal Activity SORHA (phytotoxicity rating): 40
[15]; 250 g ai/ha
  Post-emerge Herbicidal Activity SORHA (phytotoxicity rating): 95
[16]; 63 g ai/ha
  Post-emerge Herbicidal Activity CHEAL (phytotoxicity rating): 100
[16]; 250 g ai/ha
  Post-emerge Herbicidal Activity CHEAL (phytotoxicity rating): 100
[17]; 63 g ai/ha
  Post-emerge Herbicidal Activity DIGSA (phytotoxicity rating): 30
[17]; 250 g ai/ha
  Post-emerge Herbicidal Activity DIGSA (phytotoxicity rating): 95
[18]; 63 g ai/ha, rating scale 0-100 (0 no damage, 100 complete death)
  Post-emerge Herbicidal Activity AMARE (phytotoxicity rating): 95
[18]; 250 g ai/ha, rating scale 0-100
  Post-emerge Herbicidal Activity AMARE (phytotoxicity rating): 100
[19]; 63 g ai/ha
  Post-emerge Herbicidal Activity CASOB (phytotoxicity rating): 100
[19]; 250 g ai/ha
  Post-emerge Herbicidal Activity CASOB (phytotoxicity rating): 100
[20]; 63 g ai/ha
  Post-emerge Herbicidal Activity ABUTH (phytotoxicity rating): 100
[20]; 250 g ai/ha
  Post-emerge Herbicidal Activity ABUTH (phytotoxicity rating): 100
[21]; 63 g ai/ha
  Post-emerge Herbicidal Activity CORN (crop damage rating): 30
[21]; 250 g ai/ha
  Post-emerge Herbicidal Activity CORN (crop damage rating): 90
[22]; 63 g ai/ha
  Post-emerge Herbicidal Activity RICE (crop damage rating): 80
[22]; 250 g ai/ha
  Post-emerge Herbicidal Activity RICE (crop damage rating): 90
